One compound from article PMC11192927, “The potential of a novel enzyme-based surface plasmon resonance biosensor for direct detection of dopamine” (Scientific Reports, 2024) can be followed below.

For the assay, the target named is laccase (CotA) (Bacillus sp. HR03, UniProt B9W2C5). The experiment in a line: biochemical.

One may read the Kd as a measure of binding affinity in units of concentration. Lower therefore signals a tighter complex.

Chain of laccase (CotA) (B9W2C5 1-513): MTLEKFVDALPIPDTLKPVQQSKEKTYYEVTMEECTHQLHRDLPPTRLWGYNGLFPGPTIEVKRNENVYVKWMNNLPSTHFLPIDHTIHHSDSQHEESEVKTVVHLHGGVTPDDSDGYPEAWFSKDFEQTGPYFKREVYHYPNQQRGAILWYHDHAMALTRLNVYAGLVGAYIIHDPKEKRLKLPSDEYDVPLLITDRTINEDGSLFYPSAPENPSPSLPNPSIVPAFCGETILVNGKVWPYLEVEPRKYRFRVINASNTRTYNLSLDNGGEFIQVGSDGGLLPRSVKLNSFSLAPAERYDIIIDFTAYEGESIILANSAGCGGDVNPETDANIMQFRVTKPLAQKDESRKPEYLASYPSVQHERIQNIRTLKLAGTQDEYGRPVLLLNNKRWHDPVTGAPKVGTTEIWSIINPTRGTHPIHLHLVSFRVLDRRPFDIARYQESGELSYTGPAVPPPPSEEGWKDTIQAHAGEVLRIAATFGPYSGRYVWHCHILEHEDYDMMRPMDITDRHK

In turn, `NCCc1ccc(O)c(O)c1` [dopamine] returned a Kd of 48.5 nM. In other words, the double-digit nanomolar range.
